According to patent publication US20190152992A1, “BENZODIOXANE DERIVATIVES AND THEIR PHARMACEUTICAL USE” (Orion Corporation, priority 2016, published 2019):

What was measured:
human alpha2C receptors = target: T1, human alpha2C receptors (Homo sapiens, UniProt P18825); experiment: Determination of alpha2C antagonistic activity in vitro (FLIPR calcium assay); conditions: for Kb: Alpha 2C Adrenaline Kb, Kb calculated from IC50 with the Cheng-Prusoff equation, adrenaline as agonist, CHO cells, human alpha2C
T1 sequence (P18825 1-462): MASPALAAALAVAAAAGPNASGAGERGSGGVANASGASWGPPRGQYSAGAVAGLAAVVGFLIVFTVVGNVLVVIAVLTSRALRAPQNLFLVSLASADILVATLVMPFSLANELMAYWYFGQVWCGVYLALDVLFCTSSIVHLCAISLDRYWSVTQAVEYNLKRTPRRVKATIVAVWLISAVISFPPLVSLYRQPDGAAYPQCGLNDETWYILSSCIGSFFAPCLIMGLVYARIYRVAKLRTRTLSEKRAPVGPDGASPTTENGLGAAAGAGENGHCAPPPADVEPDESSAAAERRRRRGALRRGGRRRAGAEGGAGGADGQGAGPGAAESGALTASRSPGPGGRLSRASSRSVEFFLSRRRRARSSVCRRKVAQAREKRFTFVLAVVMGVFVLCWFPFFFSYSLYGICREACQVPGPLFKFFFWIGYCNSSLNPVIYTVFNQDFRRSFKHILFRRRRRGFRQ
Description: Experiment 1: Determination of alpha2A and alpha2C Antagonistic Activity In Vitro
The growth medium was removed and the cells were incubated with the test compounds and the FLIPR Calcium 6 Assay reagent (Molecular Devices, CA, USA) for 2 h at 37° C. in dark. The test compounds (concentrations in cells 100 pM-10 μM) were dissolved in Probenecid-Ringer consisting of 150 mM NaCl, 3 mM KCl, 1.2 mM MgCl2, 1 mM CaCl2, 5 mM glucose, 20 mM HEPES and 2.5 mM probenecid (pH 7.4 adjusted with 1.0 M NaOH). […] All experiments were performed at 37° C. For agonism measurements the test compounds dissolved in Probenecid-Ringer were applied by FLIPR Tetra at 15 s time point. In order to determine antagonism, the cells were stimulated either with 100 nM adrenaline or noradrenaline and the test compounds were added to the cells 2 h before the experiment with the FLIPR Calcium 6 Assay reagent. […] Typically, there were four replicates at each concentration and six different dose levels. […] The minimum fluorescence value subtracted from the maximum value for each well was used in the calculations. ScreenWorks version 4.0 software was used for analyzing the results. Fitting of the antagonist dose-response results was performed with the free Hill equation and the IC50 values were fitted with IDBS XE software using model 200: y=(A+(B/(1+((x/C)̂D)))), where A is the curve maximum, B the curve minimum and C equals the EC50 value. D is slope factor (Hill). Kb was calculated with the Cheng-Prusoff equation Kb=A/((B/C)+1), where A is the IC50 of antagonist, B the concentration of agonist and C the EC50 of the agonist.

human alpha2A receptors = target: T2, human alpha2A receptors (Homo sapiens, UniProt P08913); experiment: cell-based
T2 sequence (P08913 1-465): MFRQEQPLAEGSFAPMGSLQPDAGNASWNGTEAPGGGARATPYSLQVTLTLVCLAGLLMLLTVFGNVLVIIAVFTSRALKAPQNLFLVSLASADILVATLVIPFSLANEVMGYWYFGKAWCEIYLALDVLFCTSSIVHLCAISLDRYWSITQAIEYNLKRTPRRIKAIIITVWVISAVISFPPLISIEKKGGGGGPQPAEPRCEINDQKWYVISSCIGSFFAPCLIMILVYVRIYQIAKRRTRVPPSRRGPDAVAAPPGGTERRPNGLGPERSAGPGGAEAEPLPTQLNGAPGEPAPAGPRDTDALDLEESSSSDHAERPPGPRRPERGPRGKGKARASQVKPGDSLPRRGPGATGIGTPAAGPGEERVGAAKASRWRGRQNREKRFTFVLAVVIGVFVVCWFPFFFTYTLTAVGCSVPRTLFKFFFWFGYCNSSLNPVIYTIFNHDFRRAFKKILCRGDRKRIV

SMILES	IC50 (human alpha2C receptors)	Kb (human alpha2C receptors)	IC50 (human alpha2A receptors)	Kb (human alpha2A receptors)
O=C1CN(C2CCCC2)C(=O)N1[C@H]1CCCN(C[C@H]2COc3ccccc3O2)C1 [example 106, 1-Cyclopentyl-3-((S)-1-(((S)-2,3-dihydrobenzo[b][1,4]dioxin-2-yl)methyl)piperidin-3-yl)imidazolidine-2,4-dione]	0.1 nM	0.01 nM	> 10000 nM	> 449 nM
CC(C)CN1CC(=O)N([C@H]2CCCN(C[C@H]3COc4ccccc4O3)C2)C1=O [example 107, 3-((S)-1-(((S)-2,3-Dihydrobenzo[b][1,4]dioxin-2-yl)methyl)piperidin-3-yl)-1-isobutylimidazolidine-2,4-dione]	0.284 nM	0.029 nM	> 10000 nM	> 449 nM
O=C1CN(CC2CC2)C(=O)N1[C@H]1CCCN(C[C@H]2COc3ccccc3O2)C1 [example 108, 1-(Cyclopropylmethyl)-3-((S)-1-(((S)-2,3-dihydrobenzo[b][1,4]dioxin-2-yl)methyl)piperidin-3-yl)imidazolidine-2,4-dione]	1.25 nM	0.13 nM	> 10000 nM	> 449 nM
CN(C)C(=O)CN1CC(=O)N([C@H]2CCCN(C[C@H]3COc4ccccc4O3)C2)C1=O [example 109, 2-(3-((S)-1-(((S)-2,3-Dihydrobenzo[b][1,4]dioxin-2-yl)methyl)piperidin-3-yl)-2,4-dioxoimidazolidin-1-yl)-N,N-dimethylacetamide]	0.117 nM	0.014 nM	> 10000 nM	> 449 nM
CN1C(=O)N([C@H]2CCCN(C[C@H]3COc4ccccc4O3)C2)C(=O)C1(C)C [example 111, 3-((S)-1-(((S)-2,3-Dihydrobenzo[b][1,4]dioxin-2-yl)methyl)-piperidin-3-yl)-1,5,5-trimethylimidazolidine-2,4-dione]	0.87 nM	0.09 nM	> 10000 nM	> 449 nM
C[C@H]1NC(=O)N([C@H]2CCCN(C[C@H]3COc4ccccc4O3)C2)C1=O [example 112, (R)-3-((S)-1-(((S)-2,3-Dihydrobenzo[b][1,4]dioxin-2-yl)methyl)-piperidin-3-yl)-5-methylimidazolidine-2,4-dione]	0.16 nM	0.02 nM	> 10000 nM	> 449 nM
C[C@@H]1NC(=O)N([C@H]2CCCN(C[C@H]3COc4ccccc4O3)C2)C1=O [example 113, (S)-3-((S)-1-(((S)-2,3-Dihydrobenzo[b][1,4]dioxin-2-yl)methyl)-piperidin-3-yl)-5-methylimidazolidine-2,4-dione]	0.175 nM	0.015 nM	> 10000 nM	> 449 nM
O=C1NC(c2ccccc2)C(=O)N1[C@H]1CCCN(C[C@H]2COc3ccccc3O2)C1 (stereo partly drawn) [example 114, 3-((S)-1-(((S)-2,3-Dihydrobenzo[b][1,4]dioxin-2-yl)methyl)piperidin-3-yl)-5-phenylimidazolidine-2,4-dione]	< 0.1 nM	< 0.01 nM	2340 nM	105 nM
CC1C(=O)N([C@H]2CCCN(C[C@H]3COc4ccccc4O3)C2)C(=O)N1C (stereo partly drawn) [example 115, 3-((S)-1-(((S)-2,3-Dihydrobenzo[b][1,4]dioxin-2-yl)methyl)-piperidin-3-yl)-1,5-dimethylimidazolidine-2,4-dione]	2.08 nM	0.21 nM	> 10000 nM	> 449 nM
CC(C)N1C(=O)N([C@H]2CCCN(C[C@H]3COc4ccccc4O3)C2)C(=O)C1(C)C [example 116, 3-((S)-1-(((S)-2,3-Dihydrobenzo[b][1,4]dioxin-2-yl)methyl)-piperidin-3-yl)-1-isopropyl-5,5-dimethylimidazolidine-2,4-dione]	1 nM	0.1 nM	> 10000 nM	> 449 nM
CC(C)(C)N1CC(=O)N([C@H]2CCCN(C[C@H]3COc4ccccc4O3)C2)C1=O [example 117, 1-tert-Butyl-3-((S)-1-(((S)-2,3-dihydrobenzo[b][1,4]dioxin-2-yl)methyl)piperidin-3-yl)imidazolidine-2,4-dione]	1.99 nM	0.202 nM	> 10000 nM	> 449 nM
O=C1CN(Cc2ccccc2)C(=O)N1[C@H]1CCCN(C[C@H]2COc3ccccc3O2)C1 [example 118, 1-Benzyl-3-((S)-1-(((S)-2,3-dihydrobenzo[b][1,4]dioxin-2-yl)methyl)-piperidin-3-yl)imidazolidine-2,4-dione]	< 0.1 nM	< 0.01 nM	1120 nM	50 nM
O=C1CN(C2CC2)C(=O)N1[C@H]1CCCN(C[C@H]2COc3ccccc3O2)C1 [example 119, 1-Cyclopropyl-3-((S)-1-(((S)-2,3-dihydrobenzo[b][1,4]dioxin-2-yl)methyl)piperidin-3-yl)imidazolidine-2,4-dione]	17.5 nM	1.76 nM	> 10000 nM	> 449 nM
O=C1CN(C2COC2)C(=O)N1[C@H]1CCCN(C[C@H]2COc3ccccc3O2)C1 [example 120, 3-((S)-1-(((S)-2,3-Dihydrobenzo[b][1,4]dioxin-2-yl)methyl)-piperidin-3-yl)-1-(oxetan-3-yl)imidazolidine-2,4-dione]	132 nM	13.3 nM	> 10000 nM	> 449 nM
O=C1CN(C2CC(F)(F)C2)C(=O)N1[C@H]1CCCN(C[C@H]2COc3ccccc3O2)C1 [example 121, 1-(3,3-Difluorocyclobutyl)-3-((S)-1-(((S)-2,3-dihydrobenzo[b][1,4]dioxin-2-yl)methyl)piperidin-3-yl)imidazolidine-2,4-dione]	26.4 nM	2.66 nM	> 10000 nM	> 449 nM
O=C1NC2(CC2)C(=O)N1[C@H]1CCCN(C[C@H]2COc3ccccc3O2)C1 [example 122, 6-((S)-1-(((S)-2,3-Dihydrobenzo[b][1,4]dioxin-2-yl)methyl)-piperidin-3-yl)-4,6-diazaspiro[2.4]heptane-5,7-dione]	0.11 nM	0.01 nM	1380 nM	62 nM
CN1C(=O)N([C@H]2CCCN(C[C@H]3COc4ccccc4O3)C2)C(=O)C12CC2 [example 123, 6-((S)-1-(((S)-2,3-Dihydrobenzo[b][1,4]dioxin-2-yl)methyl)-piperidin-3-yl)-4-methyl-4,6-diazaspiro[2.4]heptane-5,7-dione]	3.52 nM	0.354 nM	> 10000 nM	> 449 nM
CN(C)C(=O)CN1C(=O)N([C@H]2CCCN(C[C@H]3COc4ccccc4O3)C2)C(=O)C12CC2 [example 124, 2-(6-((S)-1-(((S)-2,3-Dihydrobenzo[b][1,4]dioxin-2-yl)methyl)-piperidin-3-yl)-5,7-dioxo-4,6-diazaspiro[2.4]heptan-4-yl)-N,N-dimethylacetamide]	1.47 nM	0.131 nM	> 10000 nM	> 449 nM
O=C1C(=O)N([C@H]2CCCN(C[C@H]3COc4ccccc4O3)C2)C(=O)N1C1CCCCC1 [example 126, 1-Cyclohexyl-3-((S)-1-(((S)-2,3-dihydrobenzo[b][1,4]dioxin-2-yl)methyl)piperidin-3-yl)imidazolidine-2,4,5-trione]	0.01 nM	0.001 nM	3890 nM	175 nM
O=C1C(=O)N([C@H]2CCCN(C[C@H]3COc4ccccc4O3)C2)C(=O)N1C1CCCC1 [example 127, 1-Cyclopentyl-3-((S)-1-(((S)-2,3-dihydrobenzo[b][1,4]dioxin-2-yl)methyl)piperidin-3-yl)imidazolidine-2,4,5-trione]	0.027 nM	0.003 nM	8670 nM	389 nM
C[C@H](c1ccccc1)N1C(=O)C(=O)N([C@H]2CCCN(C[C@H]3COc4ccccc4O3)C2)C1=O [example 128, 1-((S)-1-(((S)-2,3-Dihydrobenzo[b][1,4]dioxin-2-yl)methyl)-piperidin-3-yl)-3-((R)-1-phenylethyl)imidazolidine-2,4,5-trione]	1.19 nM	0.119 nM	8890 nM	399 nM
O=C1C(=O)N([C@H]2CCCN(C[C@H]3COc4ccccc4O3)C2)C(=O)N1c1ccccc1 [example 129, 1-((S)-1-(((S)-2,3-Dihydrobenzo[b][1,4]dioxin-2-yl)methyl)-piperidin-3-yl)-3-phenylimidazolidine-2,4,5-trione]	1.58 nM	0.162 nM	> 10000 nM	> 449 nM
